The values that follow are results of earlier work, collected in patent US20100113580A1, “COMBINATION THERAPIES FOR THE TREATMENT OF OBESITY” (priority 2008, published 2010).

For this data set the following is noted: literature studies of single weight loss drugs.
Regarding `CC(C)CC(N(C)C)C1(c2ccc(Cl)cc2)CCC1` (stereo not drawn) [sibutramine], the “weight loss of body weight for drug compared with placebo” value (“weight loss … compared with placebo” below) is “about 5%”. In the case of `CCCCCCCCCCC[C@@H](C[C@@H]1OC(=O)[C@H]1CCCCCC)OC(=O)[C@H](CC(C)C)NC=O` [orlistat], the “weight loss … compared with placebo” value is listed as “about 5%”. In the case of `CCN[C@@H](C)Cc1cccc(C(F)(F)F)c1` [dexfenfluramine], the “weight loss … compared with placebo” value is on record as “about 5%”.
